The target of assay [1] is T1, human 5-HT2A receptor (Homo sapiens, UniProt P28223). The assay is described as follows: Human 5-HT2A functional FLIPR assay (agonist mode). It counts as cell-based. The arrangement: expressed in transfected cells; host or cells: HTR2A&Gα15-HEK293 (tetracycline induction). As to the method: The potential excitatory effects of compounds targeting on human 5-hydroxytryptamine receptor 2A (5-HT2A) under agonist mode was assessed.
HTR2A&Gα15-HEK293 cells were cultured in DMEM medium containing 10% dialyzed FBS and 1×penicillin-streptomycin, 100 μg/mL Hygromycin B and 300 μg/mL G418. The cells were passaged about three times a week, maintained between ˜30% to ˜90% confluence.
1. The cell culture medium (DMEM medium containing 10% dialyzed FBS and 1×penicillin-streptomycin, 100 μg/mL Hygromycin B and 300 μg/mL G418), TrypLE™ Express and DPBS to R.T. was warmed in advance.
2. For induction, 1 μg/ml tetracycline (final concentration) was added to cell culture medium and incubated for 48 hours prior to seeding cells into plate at 37° C., 5% (v/v) C02. The cell culture medium was removed from flask. Cells were washed with DPBS.
3. 2 mL TrypLE™ Express was added to the flask, mixed well by gentle shaking and cells were incubated at 37° C. for a few minutes.
4. The cells were checked for morphological change under microscope, the digestion was stopped by adding 4 mL cell culture medium to the flask when most of cells turned to round.
5. The cell suspension was transferred into a 15 mL centrifuge tube, and then centrifuged at 1,200 rpm for 5 minutes.
6. The supernatant was removed. The cell pellet was resuspended with 2 mL cell culture medium.
7. The cell density was counted using cell counter.
9. 30 μL/well cell suspensions added into a 384-well cell plate (The cell density was 20,000 cells/well).
10. The cell plate was incubated overnight at 37° C., 5% (v/v) CO2.
On the day of experiments, culture medium was removed from the cell plate.
10 μL of assay buffer (20 mM HEPES, in 1x HBSS, pH 7.4) was added to each well of the cell plate.
2×dye solution was prepared following the manual of the F LIP R® Calcium 6 Assay Kit: • i. The dye was diluted with assay buffer. • ii. Probenecid was added to the final concentration of 5 mM. • iii. Vortexed vigorously for I-2 minutes.
4. 10 μL of 2x dye solution was added to each well of the cell plate.
5. The cell plate was placed on plate shaker, followed by shaking at 600 rpm for 2 minutes.
6. The plate was incubated at 37° C. for 2 hours followed by an additional 15-minute incubation at 25° C.
1. Serotonin HCl was prepared to the concentration of 10 mM with DMSO.
2. The test compounds were prepared to the concentration of 10 mM with DMSO.
3. The compounds were added to a 384-well compound source plate.
4. 3-folds serial dilutions were performed with DMSO.
5. 90 nL/well of serial diluted compounds was transferred from source plate to a 384-well compound plate by using an Echo.
6. 30 μL/well of assay buffer (20 mM HEPES in 1x HBSS, pH 7.4) was added to the compound plate.
7. The plate was mixed on-plate shaker for 2 minutes.
1. After the cells were incubated with dye solution, the cell plate, compound plate containing 3×compounds and F LIP R tips were placed into F LIP R.
2. 10 μL of 3×compounds transferred from the compound plate to the cell plate by FLIP R.
3. The plate was read for 160 sec with 1 sec interval and the data of agonist mode was obtained.
1. The normalized fluorescence reading (RFU) was calculated as shown below, wherein F max and F min stand for maximum and minimum of calcium signal during defined time window:
2. EC50 by fitting R F U against log of compound concentrations with Hill equation was calculated using XLfit.
The potential excitatory effects of compounds targeting human 5-hydroxytryptamine receptor 2A (5-HT2A) under agonist mode was assessed.
2. For induction, 1 μg/ml tetracycline (final concentration) was added to cell culture medium and incubated for 48 hours prior to seeding cells into plate at 37° C., 5% (v/v) CO2. The cell culture medium was removed from flask. Cells were washed with DPBS.
1. On the day of experiments, culture medium was removed from the cell plate.
2. 10 μL of assay buffer (20 mM HEPES, in 1×HBSS, pH 7.4) was added to each well of the cell plate.

For assay [2], the target named is T1, human 5-HT2A receptor. The assay is described as follows: Human 5-HT2A radioligand binding assay ([3H]-ketanserin). More on the design: expressed in transfected cells; host or cells: HTR2A&Gα15-HEK293 (tetracycline induction). As to the method: The objective of this study was to evaluate the binding properties of exemplary compounds of Formula (I) on 5-hydroxytryptamine receptor 2A (5-HT2A).
1. The assay buffer was prepared following Table 13 below.
Adjust pH to 7.4 followed by […] sterile filtration
2. 8 doses of reference and test compounds starting from 10 mM stock solution as required was prepared by 5-fold serial dilutions with 100% (v/v) DMSO.
3. UniFilter-96 GF/B plate was pretreated: • i. 50 μl/well of 0.5% (v/v) PEI was added to UniFilter-96 […] plates. The plates were sealed and incubated at 4° C. for 3 hrs. • ii. After incubation, the plates were washed 3 times with ice-cold wash buffer (50 mM Tris, pH7.4).
4. The assay plate was prepared: • i. Cell membrane was diluted with assay buffer and 330 μl/well was added to 96 round deep well plates to reach a concentration of 20 μg/well. • ii. 8 concentrations of reference or test compounds were prepared and 110 μl/well was added to 96 round deep well plates. • iii. [3H]-ketanserin was diluted with assay buffer to 5 nM (5×final concentration) and 110 μl/well was added to 96 round deep well plates.
5. The plate was centrifuged at 1000 rpm for 30 secs and then agitated at 600 rpm, R.T. for 5 min. […]
7. The incubation was stopped by vacuum filtration onto GF/B filter plates followed by 4 times washing with ice-cold wash buffer (50 mM Tris, pH7.4).
9. The filter plates were sealed and 40 μl/well of scintillation cocktail was added.
10. The plate was read by using a Microbeta^2 microplate counter.
1. For reference and test compounds, the results were expressed as % Inhibition, using the normalization equation: N=100−100×(U-C2)/(C1-C2), where U is the unknown value, C1 is the average of high controls, and C2 is the average of low controls.
2. The IC50 was determined by fitting percentage of inhibition as a function of compound concentrations with Hill equation using XLfit. […]

Where [3] appears, read: FLIPR calcium, agonist mode, HTR2A&Gα15-HEK293 cells (Table 39), read-out: h5-HT2A, EC50.
Where [4] appears, read: [3H]-ketanserin displacement (Table 43), read-out: h5-HT2A, IC50.

SMILES strings stand for the structures. pEC50, pIC50: −log10 of the molar value. Read-outs that look alike come from different tables or passages of the source.

This note sets out measurements from patent US20250257034A1, “INDOLE DERIVATIVES AS SEROTONERGIC AGENTS USEFUL FOR THE TREATMENT OF DISORDERS RELATED THERETO” (priority 2023, published 2025).

T1 sequence (P28223 whole entry): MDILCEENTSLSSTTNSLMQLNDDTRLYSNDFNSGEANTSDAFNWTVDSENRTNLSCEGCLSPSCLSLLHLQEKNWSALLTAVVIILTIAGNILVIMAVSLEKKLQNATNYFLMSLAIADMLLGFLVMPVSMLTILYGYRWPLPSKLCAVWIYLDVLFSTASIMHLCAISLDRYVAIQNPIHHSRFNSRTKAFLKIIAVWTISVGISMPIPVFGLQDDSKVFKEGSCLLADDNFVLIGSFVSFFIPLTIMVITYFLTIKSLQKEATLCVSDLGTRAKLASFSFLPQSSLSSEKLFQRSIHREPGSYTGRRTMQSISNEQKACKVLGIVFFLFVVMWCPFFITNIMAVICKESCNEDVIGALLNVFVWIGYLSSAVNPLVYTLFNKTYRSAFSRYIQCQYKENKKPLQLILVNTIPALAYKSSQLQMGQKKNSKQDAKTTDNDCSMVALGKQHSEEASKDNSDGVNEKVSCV

The pEC50 is −log10 of the EC50, conventionally taken in molar units. By pIC50 is commonly meant the negative decadic logarithm of the IC50, by convention in mol/L. On to `COc1ccc2[nH]cc(CCN(C)CCOC(F)F)c2c1` [Compound I-71, 2-(Difluoromethoxy)-N-(2-(5-methoxy-1H-indol-3-yl)ethyl)-N-methylethan-1-amine], for which the “RFU@10 μM” value in assay [1] (RFU=Fmax−Fmin (Table 39)) is listed as 1,094 RFU. Moreover, the pEC50 in assay [1] (setting [3]) was 6.59. Moreover, the pIC50 in assay [2] (setting [4]) was 5.64.
As for `CN(CCOC(F)F)CCc1c[nH]c2ccccc12` [Compound I-130, N-(2-(1H-Indol-3-yl)ethyl)-2-(difluoromethoxy)-N-methylethan-1-amine], the “RFU@10 μM” value in assay [1] (RFU=Fmax−Fmin (Table 39)) stood at 247 RFU. The pIC50 in assay [2] (setting [4]) is 5.25.
Take `COc1ccc2[nH]cc(CCN3CC[C@@H](OC(F)F)C3)c2c1` [(R) I-67, (R)-3-(2-(3-(Difluoromethoxy)pyrrolidin-1-yl)ethyl)-5-methoxy-1H-indole]: the “RFU@10 μM” value in assay [1] (RFU=Fmax−Fmin (Table 39)) is on record as 225 RFU. For the same compound, in assay [2], the pIC50 was 5.39.
For `CSc1ccc2[nH]cc(CCN(C(C)C)C(C)C)c2c1` [Compound I-17, N-Isopropyl-N-(2-(5-(methylthio)-1H-indol-3-yl)ethyl)propan-2-amine], the pEC50 in assay [1] is 7.43. Besides, in assay [1] (RFU=Fmax−Fmin (Table 9)), the “RFU@10 μM” value is 8,546 RFU. The compound further showed a pIC50 in assay [2] of 5.70.
`CCN(CC)CCc1c[nH]c2ccc(SC)cc12` [Compound I-12, N,N-Diethyl-2-(5-(methylthio)-1H-indol-3-yl)ethan-1-amine] had a pEC50 in assay [1] of 7.11. Besides, the “RFU@10 μM” value in assay [1] (RFU=Fmax−Fmin (Table 9)) is listed as 1,041 RFU. The compound also had a pIC50 in assay [2] of 6.11.
For `CN(C)CCc1c[nH]c2ccccc12` [DMT], the “RFU@10 μM” value in assay [1] (RFU=Fmax−Fmin (Table 9)) and in assay [1] (RFU=Fmax−Fmin (Table 39)) was 3,493 RFU in each case. The negative-log EC50 (pEC50) in assay [1] (FLIPR calcium, agonist mode, HTR2A&Gα15-HEK293 cells (Table 9), read-out: h5-HT2A, EC50) is 6.79; in assay [1] (setting [3]) it was 6.79. Further, the pIC50 was 6.02 in assay [2] ([3H]-ketanserin displacement (Table 14), read-out: h5-HT2A, IC50) and 6.02 in assay [2] (setting [4]).
For the compound `COc1ccc2[nH]cc(CCN3CC[C@H](OC(F)F)C3)c2c1` [(S) I-67, (S)-3-(2-(3-(Difluoromethoxy)pyrrolidin-1-yl)ethyl)-5-methoxy-1H-indole], the pEC50 in assay [1] is 6.00. Besides, the “RFU@10 μM” value in assay [1] (RFU=Fmax−Fmin (Table 39)) is recorded as 2,147 RFU. The compound also gave a pIC50 in assay [2] of 5.31.
Regarding `CSc1ccc2[nH]cc(CCN(C)C(C)C)c2c1` [Compound I-19, N-Methyl-N-(2-(5-(methylthio)-1H-indol-3-yl)ethyl)propan-2-amine], the pEC50 in assay [1] was 7.48. Also, the “RFU@10 μM” value in assay [1] (RFU=Fmax−Fmin (Table 9)) amounted to 819 RFU. The pIC50 in assay [2] is 6.03.
`CN(C)CCc1c[nH]c2ccc(OCCOC(F)F)cc12` [Compound I-128, 2-(5-(2-(Difluoromethoxy)ethoxy)-1H-indol-3-yl)-N,N-dimethylethan-1-amine]: the pEC50 in assay [1] was 5.92. Besides, the “RFU@10 μM” value in assay [1] (RFU=Fmax−Fmin (Table 39)) is given as 2,159 RFU. In addition, in assay [2], the pIC50 is 5.11.
Regarding `[2H]C([2H])([2H])N(CCc1c[nH]c2ccc(SC)cc12)C([2H])([2H])[2H]` [Compound I-1, N,N-Bis(methyl-d3)-2-(5-(methylthio)-1H-indol-3-yl)ethan-1-amine], the pEC50 in assay [1] was 7.35. Also, in assay [1] (RFU=Fmax−Fmin (Table 9)), the “RFU@10 μM” value is listed as 7,177 RFU. For the same compound, the pIC50 in assay [2] is 6.41.
As for `COc1ccc2[nH]cc(CCN3CC[C@@H](OC)C3)c2c1` [(R) I-66, (R)-5-methoxy-3-(2-(3-methoxypyrrolidin-1-yl)ethyl)-1H-indole], in assay [1] (RFU=Fmax−Fmin (Table 39)), the “RFU@10 μM” value is on record as 752 RFU. The compound further showed a pIC50 in assay [2] of 5.37.
With `CCN(C)CCc1c[nH]c2ccc(SC)cc12` [Compound I-13, N-Ethyl-N-methyl-2-(5-(methylthio)-1H-indol-3-yl)ethan-1-amine], in assay [1], the negative logarithm of the EC50 (pEC50) was 7.74. The “RFU@10 μM” value in assay [1] (RFU=Fmax−Fmin (Table 9)) stood at 726 RFU. In addition, the pIC50 in assay [2] is 6.60.
